Patent US11453666B2, “Autotaxin inhibitory compounds” (Cancer Research Technology Limited, priority 2015, dated 2022)

These compounds were tested against human recombinant ATX (Homo sapiens, UniProt Q13822) (assay: Autotaxin (ATX) activity Quanta Red assay). Conditions: Table 2: additional compounds tested for ATX activity (Quanta Red Assay); read-out: Activity.
Format: biochemical
How it was run: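 Recombinant human ATX reaction stopped after 2 h with Quanta Red stop solution; fluorescence read at […]. Controls with DMSO, with and without ATX; IC50 in duplicate.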

IC50 [nM] | Compound
125 | COc1ccc(Cn2c(CCC(=O)NCc3ccc(C)cc3)nc3cccnc32)cc1 [Example 220, 3-[3-(4-Methoxy-benzyl)-3H-imidazo[4,5-b]pyridin-2-yl]-N-(4-methyl-benzyl)-propionamide]
688 | CSc1ccc(CCNC(=O)CCc2nc3cccnc3n2Cc2ccccc2)cc1 [Example 230, 3-(3-Benzyl-3H-imidazo[4,5-b]pyridin-2-yl)-N-[2-(4-methylsulfanyl-phenyl)-ethyl]-propionamide]
685 | O=C(CCc1nc2cccnc2n1Cc1cccs1)NCc1ccc(F)cc1 [Example 224, N-(4-Fluoro-benzyl)-3-(3-thiophen-2-ylmethyl-3H-imidazo[4,5-b]pyridin-2-yl)-propionamide]

Same assay, conditions: human recombinant ATX 0.8 μg/mL, 2 hours at room temperature, IC50 determined in duplicate; read-out: Activity (ATX activity, Quanta Red assay; IC50)

Compound | IC50 [nM]
C[C@H](NC(=O)COc1nc2cccnc2n1Cc1ccc(F)cc1)c1ccc(F)cc1 [Example 153, 2-[3-(4-fluoro-benzyl)-3H-imidazo[4,5-b]pyridin-2-yloxy]-N—[(S)-1-(4-fluoro-phenyl)-ethyl]-acetamide] | 39
C[C@H](NC(=O)C[S+]([O-])c1nc2cccnc2n1Cc1ccc(OC(F)(F)F)cc1)c1ccc(F)cc1 (single isomer, unassigned) [Example 149] | 178

Same assay, conditions: read-out: Activity (ATX activity, Quanta Red assay; IC50)

Compound | IC50 [nM]
O=C(CCc1nc2cccnc2n1Cc1cccc(OC(F)(F)F)c1)NCc1cccc(OC(F)(F)F)c1 [Example 6, N-(3-Trifluoromethoxy-benzyl)-3-[3-(3-trifluoromethoxy-benzyl)-3H-imidazo[4,5-b]pyridin-2-yl]-propionamide] | 476
CC(C)(C)OC(=O)N1CCC(CNC(=O)CCc2nc3cccnc3n2Cc2ccc(OC(F)(F)F)cc2)CC1 [Example 51, 4-({3-[3-(4-Trifluoromethoxy-benzyl)-3H-imidazo[4,5-b]pyridin-2-yl]-propionylamino}-methyl)-piperidine-1-carboxylic acid tert-butyl ester] | 22
O=C(CCc1nc2cccnc2n1Cc1ccc(OC(F)(F)F)cc1)N[C@@H]1c2ccccc2C[C@@H]1O [Example 8, N-((1R,2S)-2-Hydroxy-indan-1-yl)-3-[3-(4-trifluoromethoxy-benzyl)-3H-imidazo[4,5-b]pyridin-2-yl]-propionamide] | 1
Cc1csc(NC(=O)CCc2nc3cccnc3n2Cc2ccc(OC(F)(F)F)cc2)n1 [Example 77, N-(4-Methyl-thiazol-2-yl)-3-[3-(4-trifluoromethoxy-benzyl)-3H-imidazo[4,5-b]pyridin-2-yl]-propionamide] | 714
CCC[C@H](NC(=O)CCc1nc2cccnc2n1Cc1ccc(OC)cc1)c1ccccc1 [Example 99] | 48
C[C@H](NC(=O)CSc1nc2cccnc2n1Cc1ccc(OC(F)(F)F)cc1)c1ccc(Cl)cc1 [Example 144, N-[(S)-1-(4-Chloro-phenyl)-ethyl]-2-[3-(4-trifluoromethoxy-benzyl)-3H-imidazo[4,5-b]pyridin-2-ylsulfanyl]-acetamide] | 2
COc1ccc(CNC(=O)CCc2nc3cc(C)cnc3n2Cc2ccc(F)cc2)cc1 [Example 109, 3-[3-(4-Fluoro-benzyl)-6-methyl-3H-imidazo[4,5-b]pyridin-2-yl]-N-(4-methoxy-benzyl)-propionamide] | 185
COc1ccc(Cn2c(CCC(=O)N[C@@H](C)c3ccc(F)cc3)nc3cccnc32)cc1 [Example 96, N-[(S)-1-(4-Fluoro-phenyl)-ethyl]-3-[3-(4-methoxy-benzyl)-3H-imidazo[4,5-b]pyridin-2-yl]-propionamide] | 22
O=C(CCc1nc2cccnc2n1Cc1ccc(C(F)(F)F)cc1)NC(CO)c1ccc(OC(F)(F)F)cc1 (stereo not shown) [Example 32, N-[2-Hydroxy-1-(4-trifluoromethoxy-phenyl)-ethyl]-3-[3-(4-trifluoromethyl-benzyl)-3H-imidazo[4,5-b]pyridin-2-yl]-propionamide] | 6
C[C@H](NC(=O)CCc1nc2cccnc2n1Cc1ccc(O)cc1)c1ccc(F)cc1 [Example 155, N—[(S)-1-(4-fluoro-phenyl)-ethyl]-3-[3-(4-hydroxy-benzyl)-3H-imidazo[4,5-b]pyridin-2-yl]-propionamide] | 254
C[C@H](NC(=O)CSc1nc2cccnc2n1Cc1ccc(F)cc1)c1ccc(F)cc1 [Example 146, 2-[3-(4-Fluoro-benzyl)-3H-imidazo[4,5-b]pyridin-2-ylsulfanyl]-N-[(S)-1-(4-fluoro-phenyl)-ethyl]-acetamide] | 3
O=C(CCc1nc2cccnc2n1Cc1ccc(OC(F)(F)F)cc1)N[C@H](Cc1ccccc1)C(=O)O [Example 195, (R)-3-Phenyl-2-{3-[3-(4-trifluoromethoxy-benzyl)-3H-imidazo[4,5-b]pyridin-2-yl]-propionylamino}-propionic acid] | 1
C[C@H](NC(=O)CCc1nc2cccnc2n1Cc1ccc(F)cc1)c1ccc(N2CCC(CO)CC2)cc1 [Example 181, 3-[3-(4-Fluoro-benzyl)-3H-imidazo[4,5-b]pyridin-2-yl]-N-{(S)-1-[4-(4-hydroxymethyl-piperidin-1-yl)-phenyl]-ethyl}-propionamide] | 7
C[C@@H]1CN(c2ccc([C@H](C)NC(=O)CCc3nc4cccnc4n3Cc3ccc(OC(F)(F)F)cc3)cc2)CCN1 [Example 174, N-{(S)-1-[4-((R)-3-Methyl-piperazin-1-yl)-phenyl]-ethyl}-3-[3-(4-trifluoromethoxy-benzyl)-3H-imidazo[4,5-b]pyridin-2-yl]-propionamide] | 2
CC(C)(C)OC(=O)N1CCC[C@@H](CNC(=O)CCc2nc3cccnc3n2Cc2ccc(OC(F)(F)F)cc2)C1 [Example 54, (S)-3-({3-[3-(4-Trifluoromethoxy-benzyl)-3H-imidazo[4,5-b]pyridin-2-yl]-propionylamino}-methyl)-piperidine-1-carboxylic acid tert-butyl ester] | 40
O=C(CCc1nc2cccnc2n1Cc1ccc(F)c(F)c1)NCc1ccccn1 [Example 75, 3-[3-(3,4-Difluoro-benzyl)-3H-imidazo[4,5-b]pyridin-2-yl]-N-pyridin-2-ylmethyl-propionamide] | 424
C[C@H](NC(=O)CCc1nc2cccnc2n1Cc1ccc(Br)cc1)c1ccc(F)cc1 [Example 16, 3-[3-(4-Bromo-benzyl)-3H-imidazo[4,5-b]pyridin-2-yl]-N-[(S)-1-(4-fluoro-phenyl)-ethyl]-propionamide] | 3
C[C@H](NC(=O)CCc1cc2cccnc2n1Cc1ccc(F)cc1)c1ccc(F)cc1 [Example 140, 3-[1-(4-Fluoro-benzyl)-1H-pyrrolo[2,3-b]pyridin-2-yl]-N-[(S)-1-(4-fluoro-phenyl)-ethyl]-propionamide] | 13
CC(C)COc1ccc(Cn2c(CCC(=O)N[C@@H](C)c3ccc(F)cc3)nc3cccnc32)cc1 [Example 156, N—[(S)-1-(4-fluoro-phenyl)-ethyl]-3-[3-(4-isobutoxy-benzyl)-3H-imidazo[4,5-b]pyridin-2-yl]-propionamide] | 704

Results, then the compound that gave them:

IC50 [nM] | Compound
726 | COc1ccc(CNC(=O)CCc2nc3cccnc3n2Cc2cccc(C)c2)cc1 [Example 118, N-(4-Methoxy-benzyl)-3-[3-(3-methyl-benzyl)-3H-imidazo[4,5-b]pyridin-2-yl]-propionamide]
3 | O=C(CCc1nc2cccnc2n1Cc1ccc(OC(F)(F)F)cc1)NCc1ccc(Cl)cc1 [Example 18, N-(4-Chloro-benzyl)-3-[3-(4-trifluoromethoxy-benzyl)-3H-imidazo[4,5-b]pyridin-2-yl]-propionamide]
6 | CC(NC(=O)CCc1nc2cccnc2n1Cc1ccc(OC(F)(F)F)cc1)c1ccncc1 (stereo not shown) [Example 34, N-(1-Pyridin-4-yl-ethyl)-3-[3-(4-trifluoromethoxy-benzyl)-3H-imidazo[4,5-b]pyridin-2-yl]-propionamide]
4 | O=C(CCc1nc2cccnc2n1Cc1ccc(OC(F)(F)F)cc1)NCc1ccc(OC(F)(F)F)cc1 [Example 22, N-(4-Trifluoromethoxy-benzyl)-3-[3-(4-trifluoromethoxy-benzyl)-3H-imidazo[4,5-b]pyridin-2-yl]-propionamide]
7 | O=C(CCc1nc2cccnc2n1Cc1ccc(OC(F)(F)F)cc1)NC[C@@H](O)c1ccccc1 [Example 36, N-((S)-2-Hydroxy-2-phenyl-ethyl)-3-[3-(4-trifluoromethoxy-benzyl)-3H-imidazo[4,5-b]pyridin-2-yl]-propionamide]
2 | CN(C)CCCOc1ccc(CNC(=O)CCc2nc3cccnc3n2Cc2ccc(OC(F)(F)F)cc2)cc1 [Example 10, N-[4-(3-Dimethylamino-propoxy)-benzyl]-3-[3-(4-trifluoromethoxy-benzyl)-3H-imidazo[4,5-b]pyridin-2-yl]-propionamide]
214 | O=C(CCc1nc2cccnc2n1Cc1ccc(OC(F)(F)F)cc1)Nc1nccs1 [Example 69, N-Thiazol-2-yl-3-[3-(4-trifluoromethoxy-benzyl)-3H-imidazo[4,5-b]pyridin-2-yl]-propionamide]
57 | COc1ccc(CNC(=O)CCc2nc3cccnc3n2Cc2ccc(C)cc2)cc1 [Example 103, N-(4-Methoxy-benzyl)-3-[3-(4-methyl-benzyl)-3H-imidazo[4,5-b]pyridin-2-yl]-propionamide]
4 | CN(C)CCOc1ccc(CNC(=O)CCc2nc3cccnc3n2Cc2ccc(OC(F)(F)F)cc2)cc1 [Example 19, N-[4-(2-Dimethylamino-ethoxy)-benzyl]-3-[3-(4-trifluoromethoxy-benzyl)-3H-imidazo[4,5-b]pyridin-2-yl]-propionamide]
4 | O=C(CCc1nc2cccnc2n1Cc1ccc(OC(F)(F)F)cc1)NC(CO)c1ccc(C(F)(F)F)cc1 (stereo not shown) [Example 23, N-[2-Hydroxy-1-(4-trifluoromethyl-phenyl)-ethyl]-3-[3-(4-trifluoromethoxy-benzyl)-3H-imidazo[4,5-b]pyridin-2-yl]-propionamide]
